# Patent publication US6734168B2, “Endothelial monocyte activating polypeptide II: a mediator which activates host response” (The Trustees of Columbia University in the City of New York, priority 1993, dated 2004)
# Key:
# [1] = test system: human MPs; test: [Ca2+]i measurement in MPs (fura-2); format: cell-based
# Protocol: (§1) [Ca^2+1]i measurements. PMNs or MPs (2×10^7 cells in each case) were incubated with fura-2 AM (1 μM) and pluronic detergent (0.02%) for 12 min at room temperature, diluted sixfold, and incubated for a further 30 min at room temperature to allow for complete hydrolysis of the dye. Cells were then resuspended in HEPES-buffered saline at 5×10^5 cells/ml (32). For experiments using MPs, sulfinpyrazone (0.5 mM) was included at all steps to minimize both dye sequestration into intracellular organelles and dye efflux (33). Fluorescence of fura-2 was monitored at 37° C. in a thermostatically-controlled cuvette installed in a Perkin Elmer Model 650-40 fluorescense spectrophotometer. Calibration of [Ca^2+]i was performed as described (34).
# For determination of [Ca^2+] in PMSs and MPs, cells (2×10^7 in each case) were incubated with fura-2 AM (1 um) and pluronci detergent (0.02%) at room temperature, diluted 6-fold, and incubated for a further 30 min at room temperature to allow for complete hydrolysis of the dye. Cells were then resuspended in HEPES-buffered saline at 5×10^5 cells/ml (32). For MPs, sulfinpyrazone (0.5 mM) was included at all steps to minimize both dye sequestration into intracellular organelles and dye efflux (33). Fluorescence of fura-2 was monitored at 37° C. in a thermostatically controlled cuvette installed in a Perkin Elmer model 650-40 fluorescence spectrophotometer. […]
# [2] = test system: human PMNs; test: Release of peroxidase generating activity (myeloperoxidase) from PMNs; format: cell-based; conditions: 60 min at 37° C.
# Protocol: Release of peroxidase generating activity from PMNs (myeloperoxidase) was determined by oxidation of the peroxidase substrate 3,3′,5,5′-tetramethylbenzidine (TMB; Sigma), monitored at 620 nm, as described (35). In brief, PMNs (3×10^6 cells/ml; 0.05 ml) were incubated for 60 min at 37° C. with RPMI 1640 containing fetal calf serum (1%) alone or in the presence of phorbol ester (phorbol 12-myristate 13-acetate; Sigma) or EMAP II-derived peptides. TMP and hydrogen peroxide were added for 1 min at room temperature, and the reaction was stopped with sodium azide and acetic acid. Peroxidase activity, assessed by oxidation of TMB, was determined spectrophotometrically and is reported as percent total peroxidase activity (100% is the activity observed with that number of PMNs following 60 min exposure to phorbol ester, 10 μM). A standard curve was generated by assaying peroxidase activity from different numbers of PMNs treated with phorbol ester (10 μM) under these conditions, and peroxidase activity of PMN/EMAP II peptide incubation mixtures was determined by comparison with the linear portion of the standard curve (35).
# Release of Peroxidase Generating Activity from PMNs (myeloperoxidase)—Release was determined by a previously described assay (36) which monitors oxidation of the substrate 3,3′,5,5′-tetramethylbenzidine (TMB; Sigma). […]
# [3] = test system: human PMNs; test: [Ca2+]i measurement in PMNs (fura-2); format: cell-based
# Protocol: as §1
# For determination of [Ca^2+] in PMSs and MPs, cells (2×10^7 in each case) were incubated with fura-2 AM (1 um) and pluronci detergent (0.02%) at room temperature, diluted 6-fold, and incubated for a further 30 min at room temperature to allow for complete hydrolysis of the dye. Cells were then resuspended in HEPES-buffered saline at 5×10^5 cells/ml (32). For MPs, sulfinpyrazone (0.5 mM) was included at all steps to minimize both dye sequestration into intracellular organelles and dye efflux (33). Fluorescence of fura-2 was monitored at 37° C. in a thermostatically controlled cuvette installed in a Perkin Elmer model 650-40 fluorescence spectrophotometer. Calibration of [Ca^2+] was performed as described (34).
# [4] = test system: mouse footpad; test: Injection of peptides and peptide-albumin conjugates into mouse footpads; format: in vivo; conditions: unconjugated peptide
# Protocol: Preparation and implantation of peptide-albumin conjugates into mice. Peptide-albumin conjugates (made with either […], […] or […]) (SEQ ID NO. 16) were prepared using glutaraldehyde as described (39). In brief, mouse serum albumin (50 μg) was incubated with glutaraldehyde (450 μg) and the indicated peptide (200 μg) in NaCl (0.1 M) Tris (0.05 N; pH 7.3) for 10 min at room temperature. Excess lysine was added (final concentration, 0.5 M), and the albumin-peptide conjugates were dialyzed exhaustively versus phosphate-buffered saline. BALB/c mice (6-12 weeks) each received an injection into the footpad (7,40-41) of 0.05 ml of a solution of either (i) albumin-peptide conjugate (50 μg, total protein/footpad), (ii) albumin treated with glutaraldehyde in an identical fashion, except that no peptide was present (50 μg, total protein/footpad), (iii) native albumin (50 μg total protein/footpad), or (iv) buffer alone. At the indicated time, animals were sacrificed by humane euthanasia, footpads were harvested, fixed in buffered formalin (10%), decalcified, and embedded in paraffin. Sections were stained with hematoxylin and eosin.
sequence,measurement,setting,value
"ASRLDLRIGRIVTAKY [residues #6-20 from EMAP II, Cys to Arg substitution at position #15, and a C-terminal Tyr]",Rise in [Ca2+]i in MPs,[1],results in elevation of [Ca^2+]i
same,Release of PMN myeloperoxidase activity (peroxidase generation assay),[2],released PMN myeloperoxidase activity
same,Rise in [Ca2+]i in PMNs,[3],induced a rise in [Ca^2+]i
same,Inflammatory response to free peptide injected subcutaneously into mice,[4],at most a transient inflammatory response
